By inhibition is commonly meant the relative decrease from the control value, in per cent. Low readings indicate a response near the control, high ones a response far below the control. One may read the IC50 as the concentration that gives 50% inhibition. Read a high IC50 as weaker potency in that assay.

Series [1] addresses T1, CYP2C8 (Homo sapiens, UniProt P10632).
T1 construct: Pooled human microsomes were obtained from Sekisui XenoTech, KS; tissue Sekisui XenoTech, KS; host or cells: pooled human liver microsomes
T1 sequence (P10632 1-490): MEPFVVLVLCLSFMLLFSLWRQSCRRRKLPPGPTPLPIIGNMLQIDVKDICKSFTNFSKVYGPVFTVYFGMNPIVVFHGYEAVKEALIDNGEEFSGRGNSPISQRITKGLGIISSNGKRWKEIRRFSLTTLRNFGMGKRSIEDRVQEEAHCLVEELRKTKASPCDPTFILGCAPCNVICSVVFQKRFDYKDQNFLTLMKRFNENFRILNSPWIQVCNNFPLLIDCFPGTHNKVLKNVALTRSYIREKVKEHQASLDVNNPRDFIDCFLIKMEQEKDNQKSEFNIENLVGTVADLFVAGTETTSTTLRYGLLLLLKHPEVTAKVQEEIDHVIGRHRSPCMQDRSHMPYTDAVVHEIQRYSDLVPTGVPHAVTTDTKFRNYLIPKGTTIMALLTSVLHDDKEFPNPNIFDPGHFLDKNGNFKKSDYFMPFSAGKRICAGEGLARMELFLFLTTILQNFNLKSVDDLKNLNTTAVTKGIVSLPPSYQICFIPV
Kind of series: CYP Inhibition Assay (CYP2C8, human liver microsomes, paclitaxel substrate). The series is classed as in vitro ADME. The following applies: pH 7.4; pooled human liver microsomes 0.1 mg/mL, probe substrate paclitaxel. In a few lines:
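Pooled human liver microsomes (0.1 mg/mL) in 50 mM potassium phosphate pH 7.4 with compound, started with 1 mM NADPH, 5 min at 37° C, duplicate.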

Series [2] deals with T2, GR (Homo sapiens, UniProt P04150).
T2 construct: expressed in transfected cells; host or cells: CHO-K1
T2 sequence (P04150 1-777): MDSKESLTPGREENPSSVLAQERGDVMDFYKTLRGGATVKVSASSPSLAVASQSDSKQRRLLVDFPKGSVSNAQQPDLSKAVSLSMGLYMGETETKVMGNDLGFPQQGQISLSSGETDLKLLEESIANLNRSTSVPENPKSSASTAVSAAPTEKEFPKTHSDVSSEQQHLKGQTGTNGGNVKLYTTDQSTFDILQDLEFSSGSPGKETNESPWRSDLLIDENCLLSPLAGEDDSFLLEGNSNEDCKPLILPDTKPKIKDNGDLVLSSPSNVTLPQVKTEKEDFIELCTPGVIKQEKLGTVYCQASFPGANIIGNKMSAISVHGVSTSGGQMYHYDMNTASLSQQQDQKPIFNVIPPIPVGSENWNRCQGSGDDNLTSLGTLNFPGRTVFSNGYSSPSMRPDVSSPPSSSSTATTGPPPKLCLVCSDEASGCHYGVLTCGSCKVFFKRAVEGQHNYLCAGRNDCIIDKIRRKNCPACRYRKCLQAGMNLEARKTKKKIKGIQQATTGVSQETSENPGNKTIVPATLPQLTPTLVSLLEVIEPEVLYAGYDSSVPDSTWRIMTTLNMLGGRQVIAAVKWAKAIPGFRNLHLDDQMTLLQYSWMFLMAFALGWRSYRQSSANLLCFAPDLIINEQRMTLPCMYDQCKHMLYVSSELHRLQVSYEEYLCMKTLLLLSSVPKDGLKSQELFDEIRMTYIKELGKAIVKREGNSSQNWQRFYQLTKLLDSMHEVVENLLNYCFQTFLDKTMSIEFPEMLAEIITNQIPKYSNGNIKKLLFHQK
The experiment in a line: In Vitro GR Luciferase Reporter Assay (antagonist mode, CHO-K1-GR-MMTV-Luc reporter cells). The class given is cell-based. The following applies: antagonist mode, 10 nM Dexamethasone. In short, it runs like this:
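CHO-K1-GR-MMTV-Luc cells in phenol red-free DMEM with 10% CSS, stimulated with 10 nM dexamethasone (final) and treated with 8-point 1:5 compound dilutions for about 18-24 h at 37° C. Luciferase measured by OneGlo luminescence; IC50 derived for inhibition of GR activity.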
(A reporter such as luciferase makes a cellular process visible.)

Consider `Cn1ccc(S(=O)(=O)[C@@]2(F)CCC3=Cc4c(cnn4-c4ccc(F)cc4)C[C@]3(C(=O)c3ccc(C(F)(F)F)cn3)C2)n1` [Example 289, ((4aS,6S)-6-fluoro-1-(4-fluorophenyl)-6-((1-methyl-1H-pyrazol-3-yl)sulfonyl)-1,4,5,6,7,8-hexahydro-4aH-benzo[f]indazol-4a-yl)(5-(trifluoromethyl)pyridin-2-yl)methanone], for which the inhibition at 5 min in series [1] is at most 25%. This compound gave an IC50 in series [2] of at most 100 nM.
With `Cn1cc(S(=O)(=O)N(CC(F)(F)F)[C@H]2CCC3=Cc4c(cnn4-c4ccc(F)cc4)C[C@]3(C(=O)c3ncc(C(F)(F)F)s3)C2)nn1` [Example 290, N-((4aS,6S)-1-(4-fluorophenyl)-4a-(5-(trifluoromethyl)thiazole-2-carbonyl)-4,4a,5,6,7,8-hexahydro-1H-benzo[f]indazol-6-yl)-1-methyl-N-(2,2,2-trifluoroethyl)-1H-1,2,3-triazole-4-sulfonamide], the inhibition at 5 min in series [1] lay within 25 to 50%. The compound further showed an IC50 in series [2] of at most 100 nM.
For `Cn1cnc(S(=O)(=O)N(CC(F)(F)F)[C@H]2CCC3=Cc4c(cnn4-c4ccc(F)cc4)C[C@]3(C(=O)c3ncc(C(F)(F)F)s3)C2)c1` [Example 293, N-((4aS,6S)-1-(4-fluorophenyl)-4a-(5-(trifluoromethyl)thiazole-2-carbonyl)-4,4a,5,6,7,8-hexahydro-1H-benzo[f]indazol-6-yl)-1-methyl-N-(2,2,2-trifluoroethyl)-1H-imidazole-4-sulfonamide] the same measures were at most 25% and at most 100 nM.
Turning to `O=C(c1cc(C(F)(F)F)ccn1)[C@]12Cc3cnn(-c4ccc(F)cc4)c3C=C1CC[C@H](N(CC1CC1)S(=O)(=O)c1ccc(Cl)nc1)C2` [Example 294, 6-chloro-N-(cyclopropylmethyl)-N-((4aS,6S)-1-(4-fluorophenyl)-4a-(4-(trifluoromethyl)picolinoyl)-4,4a,5,6,7,8-hexahydro-1H-benzo[f]indazol-6-yl)pyridine-3-sulfonamide], the inhibition at 5 min in series [1] is at most 25%. Besides, the IC50 in series [2] was at most 100 nM.
For `CC(C)N([C@H]1CCC2=Cc3c(cnn3-c3ccc(F)cc3)C[C@]2(C(=O)c2cc(F)ccn2)C1)S(=O)(=O)c1cn(C)nn1` [Example 295, N-((4aS,6S)-1-(4-fluorophenyl)-4a-(4-fluoropicolinoyl)-4,4a,5,6,7,8-hexahydro-1H-benzo[f]indazol-6-yl)-N-isopropyl-1-methyl-1H-1,2,3-triazole-4-sulfonamide] the same measures were 50 to 75% and at most 100 nM.
For `CC(C)N([C@H]1CCC2=Cc3c(cnn3-c3ccc(F)cc3)C[C@]2(C(=O)c2cc(Cl)ccn2)C1)S(=O)(=O)c1cn(C)nn1` [Example 296, N-((4aS,6S)-4a-(4-chloropicolinoyl)-1-(4-fluorophenyl)-4,4a,5,6,7,8-hexahydro-1H-benzo[f]indazol-6-yl)-N-isopropyl-1-methyl-1H-1,2,3-triazole-4-sulfonamide], in series [1], the inhibition at 5 min was 50 to 75%. The compound also gave a half-inhibitory concentration (IC50) in series [2] of at most 100 nM.
For `Cn1ccc(S(=O)(=O)N(CC2CC2)[C@H]2CCC3=Cc4c(cnn4-c4ccc(F)cc4)C[C@]3(C(=O)c3cc(C(F)F)ccn3)C2)n1` [Example 298, N-(cyclopropylmethyl)-N-((4aS,6S)-4a-(4-(difluoromethyl)picolinoyl)-1-(4-fluorophenyl)-4,4a,5,6,7,8-hexahydro-1H-benzo[f]indazol-6-yl)-1-methyl-1H-pyrazole-3-sulfonamide] the same measures were 50 to 75% and at most 100 nM.
The like results for `CC(C)N([C@H]1CCC2=Cc3c(cnn3-c3ccc(F)cc3)C[C@]2(C(=O)c2ncc(C(F)(F)F)s2)C1)S(=O)(=O)c1cn(C)cn1` [Example 299, N-((4aS,6S)-1-(4-fluorophenyl)-4a-(5-(trifluoromethyl)thiazole-2-carbonyl)-4,4a,5,6,7,8-hexahydro-1H-benzo[f]indazol-6-yl)-N-isopropyl-1-methyl-1H-imidazole-4-sulfonamide] were, in that order, at most 25% and at most 100 nM.
The like results for `Cn1ncc(S(=O)(=O)N(CC(F)(F)F)[C@H]2CCC3=Cc4c(cnn4-c4ccc(F)cc4)C[C@]3(C(=O)c3ncc(C(F)(F)F)s3)C2)n1` [Example 300, N-((4aS,6S)-1-(4-fluorophenyl)-4a-(5-(trifluoromethyl)thiazole-2-carbonyl)-4,4a,5,6,7,8-hexahydro-1H-benzo[f]indazol-6-yl)-2-methyl-N-(2,2,2-trifluoroethyl)-2H-1,2,3-triazole-4-sulfonamide] were, in that order, 50 to 75% and at most 100 nM.
In turn, `Cc1ncc(S(=O)(=O)N(C2CC2)[C@H]2CCC3=Cc4c(cnn4-c4ccc(F)cc4)C[C@]3(C(=O)c3cc(C(F)(F)F)ccn3)C2)n1C` [Example 307, N-cyclopropyl-N-((4aS,6S)-1-(4-fluorophenyl)-4a-(4-(trifluoromethyl)picolinoyl)-4,4a,5,6,7,8-hexahydro-1H-benzo[f]indazol-6-yl)-1,2-dimethyl-1H-imidazole-5-sulfonamide] registered an inhibition at 5 min in series [1] of 25 to 50%. Also, the IC50 in series [2] was at most 100 nM.
For `CCn1ccc(S(=O)(=O)[C@H]2CCC3=Cc4c(cnn4-c4ccc(F)cc4)C[C@]3(C(=O)c3ccc(C(F)(F)F)cn3)C2)n1` [Example 308, ((4aS,6S)-6-((1-ethyl-1H-pyrazol-3-yl)sulfonyl)-1-(4-fluorophenyl)-1,4,5,6,7,8-hexahydro-4aH-benzo[f]indazol-4a-yl)(5-(trifluoromethyl)pyridin-2-yl)methanone] the same measures were 25 to 50% and at most 100 nM.
The like results for `O=C(c1ccc(C(F)(F)F)cn1)[C@]12Cc3cnn(-c4ccc(F)cc4)c3C=C1CC[C@H](S(=O)(=O)c1ccn(C3CC3)n1)C2` [Example 309, ((4aS,6S)-6-((1-cyclopropyl-1H-pyrazol-3-yl)sulfonyl)-1-(4-fluorophenyl)-1,4,5,6,7,8-hexahydro-4aH-benzo[f]indazol-4a-yl)(5-(trifluoromethyl)pyridin-2-yl)methanone] were, in that order, at most 25% and at most 100 nM.
`CC(C)n1ccc(S(=O)(=O)[C@H]2CCC3=Cc4c(cnn4-c4ccc(F)cc4)C[C@]3(C(=O)c3ccc(C(F)(F)F)cn3)C2)n1` [Example 310, ((4aS,6S)-1-(4-fluorophenyl)-6-((1-isopropyl-1H-pyrazol-3-yl)sulfonyl)-1,4,5,6,7,8-hexahydro-4aH-benzo[f]indazol-4a-yl)(5-(trifluoromethyl)pyridin-2-yl)methanone]: the inhibition at 5 min in series [1] is 25 to 50%. In addition, the concentration for half-maximal inhibition (IC50) in series [2] is at most 100 nM.
In turn, `Cn1cc(S(=O)(=O)N(CC(F)F)[C@H]2CCC3=Cc4c(cnn4-c4ccc(F)cc4)C[C@]3(C(=O)c3cc(C(F)(F)F)ccn3)C2)nn1` [Example 311, N-(2,2-difluoroethyl)-N-((4aS,6S)-1-(4-fluorophenyl)-4a-(4-(trifluoromethyl)picolinoyl)-4,4a,5,6,7,8-hexahydro-1H-benzo[f]indazol-6-yl)-1-methyl-1H-1,2,3-triazole-4-sulfonamide] came in with an inhibition at 5 min in series [1] of at most 25%. Besides, the IC50 in series [2] was at most 100 nM.
For `O=C(c1ncc(C(F)(F)F)s1)[C@]12Cc3cnn(-c4ccc(F)cc4)c3C=C1CC[C@H](N(CC(F)(F)F)S(=O)(=O)c1ccc(Cl)nc1)C2` [Example 312, 6-chloro-N-((4aS,6S)-1-(4-fluorophenyl)-4a-(5-(trifluoromethyl)thiazole-2-carbonyl)-4,4a,5,6,7,8-hexahydro-1H-benzo[f]indazol-6-yl)-N-(2,2,2-trifluoroethyl)pyridine-3-sulfonamide] the same measures were 25 to 50% and at most 100 nM.

The values above are taken from US20210122730A1, “GLUCOCORTICOID RECEPTOR MODULATORS” (ORIC Pharmaceuticals, Inc., priority 2017, published 2021).
